Legend:
Type in all cases: functional
HOP-62 = assay: Anticancer activity against human HOP62 cells after 48 hrs by SRB assay; conditions: HOP-62, 48 h
UACC-62 = assay: Anticancer activity against human UACC62 cells after 48 hrs by SRB assay; conditions: UACC-62, 48 h
SW-620 = assay: Anticancer activity against human SW620 cells after 48 hrs by SRB assay; conditions: SW-620, 48 h
UACC-257 = assay: Anticancer activity against human UACC257 cells after 48 hrs by SRB assay; conditions: UACC-257, 48 h
OVCAR-5 = assay: Anticancer activity against human OVCAR5 cells after 48 hrs by SRB assay; conditions: OVCAR-5, 48 h
DU-145 = assay: Anticancer activity against human DU145 cells after 48 hrs by SRB assay; conditions: DU-145, 48 h
MCF7 = assay: Anticancer activity against human MCF7 cells after 48 hrs by SRB assay; conditions: MCF7, 48 h
NCI-H460 = assay: Anticancer activity against human NCI-H460 cells after 48 hrs by SRB assay; conditions: NCI-H460, 48 h
MDA-MB-435 = assay: Anticancer activity against human MDA-MB-435 cells after 48 hrs by SRB assay; conditions: MDA-MB-435, 48 h
NCI-H322M = assay: Anticancer activity against human NCI-H322M cells after 48 hrs by SRB assay
TK-10 = assay: Anticancer activity against human TK10 cells after 48 hrs by SRB assay; conditions: TK-10, 48 h
NCI-H226 = assay: Anticancer activity against human NCI-H226 cells after 48 hrs by SRB assay; conditions: NCI-H226, 48 h
OVCAR-4 = assay: Anticancer activity against human OVCAR4 cells after 48 hrs by SRB assay; conditions: OVCAR-4, 48 h
IGROV-1 = assay: Anticancer activity against human IGROV1 cells after 48 hrs by SRB assay; conditions: IGROV-1, 48 h
SNB-19 = assay: Anticancer activity against human SNB19 cells after 48 hrs by SRB assay; conditions: SNB-19, 48 h
ACHN = assay: Anticancer activity against human ACHN cells after 48 hrs by SRB assay
COLO 205 = assay: Anticancer activity against human COLO205 cells after 48 hrs by SRB assay; conditions: COLO 205, 48 h
Malme-3M = assay: Anticancer activity against human MALME-3M cells after 48 hrs by SRB assay
SR = assay: Anticancer activity against human SR cells after 48 hrs by SRB assay
[1] = Anticancer activity against human Hs 578T cells after 48 hrs by SRB assay
CAKI-1 = assay: Anticancer activity against human Caki1 cells after 48 hrs by SRB assay; conditions: CAKI-1, 48 h
NCI/ADR-RES = assay: Anticancer activity against human NCI/ADR-RES cells after 48 hrs by SRB assay
KM12 = assay: Anticancer activity against human KM12 cells after 48 hrs by SRB assay; conditions: KM12, 48 h
SK-MEL-5 = assay: Anticancer activity against human SK-MEL-5 cells after 48 hrs by SRB assay; conditions: SK-MEL-5, 48 h
SF-539 = assay: Anticancer activity against human SF539 cells after 48 hrs by SRB assay; conditions: SF-539, 48 h
MOLT-4 = assay: Anticancer activity against human MOLT4 cells after 48 hrs by SRB assay; conditions: MOLT-4, 48 h
MDA-MB-231 = assay: Anticancer activity against human MDA-MB-231 cells after 48 hrs by SRB assay; conditions: MDA-MB-231, 48 h
BT-549 = assay: Anticancer activity against human BT549 cells after 48 hrs by SRB assay; conditions: BT-549, 48 h
SK-MEL-28 = assay: Anticancer activity against human SK-MEL-28 cells after 48 hrs by SRB assay; conditions: SK-MEL-28, 48 h
SF-295 = assay: Anticancer activity against human SF295 cells after 48 hrs by SRB assay; conditions: SF-295, 48 h
786-0 = assay: Anticancer activity against human 786-0 cells after 48 hrs by SRB assay; conditions: 786-0, 48 h
LOX IMVI = assay: Anticancer activity against human LOXIMVI cells after 48 hrs by SRB assay
HCC 2998 = assay: Anticancer activity against human HCC2998 cells after 48 hrs by SRB assay; conditions: HCC 2998, 48 h
MDA-MB-468 = assay: Anticancer activity against human MDA-MB-468 cells after 48 hrs by SRB assay; conditions: MDA-MB-468, 48 h
[2] = read-out: LC50 (the source's name)

Cc1cc(O)c(C2=NN(c3ccc(S(N)(=O)=O)cc3)C(c3ccc(Cl)cc3)C2)c(C)c1Cl (configuration not stated) showed a GI50 (HOP-62) of 18.6 µM, a TGI (HOP-62) of 34.8 µM and a GI50 (UACC-62) of 9.92 µM. The TGI (UACC-62) was 25.8 µM, the GI50 (SW-620) was 18.4 µM and the TGI (SW-620) was 37.8 µM. For the same compound, the GI50 (UACC-257) was 26.3 µM, the TGI (UACC-257) was 63.1 µM and the GI50 (OVCAR-5) was 19.4 µM. For the same compound, the TGI (OVCAR-5) was 38.1 µM, the GI50 (DU-145) was 19.2 µM and the TGI (DU-145) was 38.4 µM. It also gave a CC50 (DU-145; [2]) of 77 µM, a GI50 (MCF7) of 6.55 µM and a TGI (MCF7) of 24.2 µM. The CC50 (MCF7; [2]) was 71.1 µM, the GI50 (NCI-H460) was 12.2 µM and the TGI (NCI-H460) was 27.4 µM. The CC50 (NCI-H460; [2]) was 61.4 µM, the GI50 (MDA-MB-435) was 13.4 µM and the TGI (MDA-MB-435) was 31 µM. The GI50 (NCI-H322M) was 18 µM, the TGI (NCI-H322M) was 38.9 µM and the GI50 (TK-10) was 22.1 µM. For the same compound, the TGI (TK-10) was 42.4 µM, the CC50 (TK-10; [2]) was 81.4 µM and the GI50 (NCI-H226) was 13.4 µM. The TGI (NCI-H226) was 29.4 µM, the GI50 (OVCAR-4) was 13.3 µM and the TGI (OVCAR-4) was 27.6 µM. The GI50 (IGROV-1) was 18.3 µM, the TGI (IGROV-1) was 59 µM and the GI50 (SNB-19) was 22.2 µM. It also gave a TGI (SNB-19) of 62.6 µM, a GI50 (ACHN) of 14.9 µM and a TGI (ACHN) of 30.6 µM. The CC50 (ACHN; [2]) was 62.9 µM, the GI50 (COLO 205) was 12.3 µM and the TGI (COLO 205) was 25.4 µM. It also gave a GI50 (Malme-3M) of 14.8 µM, a TGI (Malme-3M) of 32.7 µM and a CC50 (Malme-3M; [2]) of 72.1 µM. For the same compound, the GI50 (SR) was 14.1 µM, the TGI (SR) was 37.5 µM and the GI50 [1] was 23 µM. It also gave a TGI [1] of 62.3 µM, a CC50 [1, 2] of 100 µM and a GI50 (CAKI-1) of 23.3 µM. For the same compound, the TGI (CAKI-1) was 100 µM, the CC50 (CAKI-1; [2]) was 100 µM and the GI50 (NCI/ADR-RES) was 19.3 µM. The TGI (NCI/ADR-RES) was 76.4 µM, the CC50 (NCI/ADR-RES; [2]) was 100 µM and the GI50 (KM12) was 13.3 µM. For the same compound, the TGI (KM12) was 28.3 µM, the GI50 (SK-MEL-5) was 14.5 µM and the TGI (SK-MEL-5) was 27.8 µM. The GI50 (SF-539) was 15.7 µM, the TGI (SF-539) was 29.3 µM and the GI50 (MOLT-4) was 12.7 µM. For the same compound, the TGI (MOLT-4) was 43.2 µM, the GI50 (MDA-MB-231) was 11 µM and the TGI (MDA-MB-231) was 27.2 µM. The CC50 (MDA-MB-231; [2]) was 67.5 µM, the GI50 (BT-549) was 15.4 µM and the TGI (BT-549) was 43.3 µM. For the same compound, the CC50 (BT-549; [2]) was 100 µM, the GI50 (SK-MEL-28) was 19.4 µM and the TGI (SK-MEL-28) was 35.6 µM. It also gave a GI50 (SF-295) of 19.2 µM, a TGI (SF-295) of 44.4 µM and a GI50 (786-0) of 16.8 µM. For the same compound, the TGI (786-0) was 32.2 µM, the CC50 (786-0; [2]) was 62 µM and the GI50 (LOX IMVI) was 14.8 µM. For the same compound, the TGI (LOX IMVI) was 32 µM, the CC50 (LOX IMVI; [2]) was 69.2 µM and the GI50 (HCC 2998) was 14.8 µM. For the same compound, the TGI (HCC 2998) was 30.9 µM, the GI50 (MDA-MB-468) was 17.1 µM and the TGI (MDA-MB-468) was 33.8 µM. It also gave a CC50 (MDA-MB-468; [2]) of 66.7 µM.

Source: ChEMBL document CHEMBL1949518, “Synthesis and biological evaluation of some new 2-pyrazolines bearing benzene sulfonamide moiety as potential anti-inflammatory and anti-cancer agents” (Eur J Med Chem, 2011)
